PubChem BioAssay AID1918996 (Molecular Pharmacology Branch, DTP, NCI, 2023)
“And” between values parts separate entries of the source, which are not always exact repeats. Identical values can stand only once.

System: 349418-098-R-PDC complex spheroid growth
Assay: Anticancer human tumor 349418-098-R-PDC patient-derived lung adenocarcinoma cell line growth inhibition [AhR]
Conditions: for viability, T/C: stronger effect = lower value
Description: Multicellular complex tumor spheroid response to aryl hydrocarbon receptor antagonists in combination with a variety of drugs and investigational agents in selected tumor cell lines
The current study was undertaken to assess response to aryl hydrocarbon receptor antagonists in combination with standard-of-care drugs and investigational agents in solid tumor complex spheroid models. Complex spheroids include a stromal component modeled by human endothelial cells (HUVEC) and fibroblasts modeled by human mesenchymal stem cells (MSCs). The concentration ranges selected for each drug and investigational agent were based upon clinically achievable concentrations if the clinical Cmax of the agent was known.
Compounds. The drugs and investigational agents: BAY 2416964 (NSC825713), GNF351 (NSC835774), CH-223191 (NSC835775), CPI-455 (NSC825282), aza-TdCyd (NSC777586), decitabine (NSC127716), belinostat (NSC758774), entinostat (NSC756642), pevonedistat (NSC761192), tazemetostat (NSC777109), talazoparib (NSC765396), olaparib (NSC753686), selinexor (NSC780203), nedisertib (M3814, NSC802822), bortezomib (NSC756655), venetoclax (NSC766270), doxorubicin (NSC123127), elimusertib (BAY189344, NSC800525), ceralasertib (AZD6738, NSC777638), TAK-243 (NSC785004), alisertib (NSC759677), etoposide (NSC141540), topotecan (NSC609699), eribulin (NSC707389), gemcitabine (NSC613327), carboplatin (NSC241240), cisplatin (NSC119875), and SN-38 (NSC673596) were obtained from the National Cancer Institute (NCI) Developmental Therapeutics Program Chemical Repository (32). The FDA-approved anticancer drug set is available from the Developmental Therapeutics Program at https://dtp.cancer.gov/organization/dscb/obtaining/available plates.htm. […] The stock solutions were prepared in dimethyl sulfoxide (DMSO, Sigma-Aldrich, St. Louis, MO, cat. D2650), except for the platinum compounds which were prepared in saline (Quality Biological, Gaithersburg, MD, cat. 114-055-101), at 800-fold the tested concentration and stored at -70 degrees C prior to their use. All drugs and investigational agents were tested over a range starting from a high concentration at or near the clinical Cmax and decreasing in half-log increments. If the clinical Cmax for an agent had not been determined, the highest concentration tested was 10 microM (Table 1).
Cell Culture. All cells were maintained in an incubator at 37 degrees C and 5% CO2 with 95% humidity. The PDC lines were cultured according to standard operating procedures established by the NCI PDMR (https://pdmr.cancer.gov). Briefly, all PDCs were thawed and cultured in Matrigel-coated flasks prepared with a working solution of 1X Ham's F-12 nutrient mix, without supplementation (Invitrogen, Waltham, MA, cat. 11765054), 100 U/mL penicillin-streptomycin (Invitrogen, cat. 15140122), and 2.5% Matrigel (Corning Inc., Corning, NY, cat. 354248) for the first three passages. All PDCs were cultured in complete DMEM/F-12 media containing advanced DMEM/F-12 (Invitrogen, cat. 12634028), 4.9% defined fetal bovine serum, heat inactivated (HyClone Laboratories Inc., Logan, UT, cat. SH30070.03HI), 389 ng/mL hydrocortisone (Sigma-Aldrich, cat. H4001), 9.7 ng/mL human EGF recombinant protein (Invitrogen, cat. PHG0313), 23.4 microg/mL adenine (Sigma-Aldrich, cat. A2786), 97.3 U/mL penicillin-streptomycin (Invitrogen, cat. 15140122), 1.9 mM L-glutamine (Invitrogen, cat. 25030081), and 9.7 microM Y-27632 dihydrochloride (Tocris Bioscience, Bristol, United Kingdom, cat. 1254). The PDCs were cultured in complete DMEM/F12 media without 10 microM Y-27632 dihydrochloride for at least two passages prior to the screen. The established cell lines NCI-H1341 and […] were cultured in DMEM/F-12, HEPES (Invitrogen, cat. 11330032), 5% defined fetal bovine serum (HyClone Laboratories Inc., cat. SH30070.03), ITS premix universal culture supplement [insulin (5 microg/mL), transferrin (5 microg/mL), and selenious acid (5 ng/mL)] […]

[1] = curve of first compound, second compound 0.1 µM
[2] = curve of first compound, second compound 0.316 µM
[3] = curve of first compound, second compound 1 µM
[4] = curve of first compound, second compound 3.16 µM
[5] = curve of first compound, second compound 10 µM
[6] = second compound 0.1 µM, first compound 0.0316 µM
[7] = second compound 0.1 µM, first compound 0.1 µM
[8] = second compound 0.1 µM, first compound 0.316 µM
[9] = second compound 0.1 µM, first compound 1 µM
[10] = second compound 0.1 µM, first compound 3.16 µM
[11] = second compound 0.1 µM, first compound 10 µM
[12] = second compound 0.316 µM, first compound 0.0316 µM
[13] = second compound 0.316 µM, first compound 0.1 µM
[14] = second compound 0.316 µM, first compound 0.316 µM
[15] = second compound 0.316 µM, first compound 1 µM
[16] = second compound 0.316 µM, first compound 3.16 µM
[17] = second compound 0.316 µM, first compound 10 µM
[18] = second compound 1 µM, first compound 0.0316 µM
[19] = second compound 1 µM, first compound 0.1 µM
[20] = second compound 1 µM, first compound 0.316 µM
[21] = second compound 1 µM, first compound 1 µM
[22] = second compound 1 µM, first compound 3.16 µM
[23] = second compound 1 µM, first compound 10 µM
[24] = second compound 3.16 µM, first compound 0.0316 µM
[25] = second compound 3.16 µM, first compound 0.1 µM
[26] = second compound 3.16 µM, first compound 0.316 µM
[27] = second compound 3.16 µM, first compound 1 µM
[28] = second compound 3.16 µM, first compound 3.16 µM
[29] = second compound 3.16 µM, first compound 10 µM
[30] = second compound 10 µM, first compound 0.0316 µM
[31] = second compound 10 µM, first compound 0.1 µM
[32] = second compound 10 µM, first compound 0.316 µM
[33] = second compound 10 µM, first compound 1 µM
[34] = second compound 10 µM, first compound 3.16 µM
[35] = second compound 10 µM, first compound 10 µM
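Further: spheroids exposed to agents for seven days before luminescence viability read.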
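Wherever viability, T/C is given: spheroids also contain HUVEC endothelial cells and human MSC stroma.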

`CC1COCCN1c1cc(C2(S(C)(=N)=O)CC2)nc(-c2ccnc3[nH]ccc23)n1` (stereo unspecified) + CC(CO)NC(=O)c1cc(-c2ccc(Cl)cc2)nn(-c2cnn(C)c2)c1=O showed an IC50 [1] of 1530 nM, an IC50 [2] of 1710 nM and an IC50 [3] of 1410 nM. The IC50 [4] was 750 nM, the IC50 [5] was 1270 nM and the viability, T/C [6] was 84.5%. It also gave a viability, T/C [7] of 71.8%, a viability, T/C [8] of 69.6% and a viability, T/C [9] of 65.7%. It also gave a viability, T/C [10] of 24.4%, a viability, T/C [11] of 12.5% and a viability, T/C [12] of 70%. For the same compound, the viability, T/C [13] was 80.7%, the viability, T/C [14] was 66.8% and the viability, T/C [15] was 73.2%. For the same compound, the viability, T/C [16] was 24.2%, the viability, T/C [17] was 10.4% and the viability, T/C [18] was 67.6%. It also gave a viability, T/C [19] of 89.1%, a viability, T/C [20] of 85.2% and a viability, T/C [21] of 59%. It also gave a viability, T/C [22] of 25.7%, a viability, T/C [23] of 12.5% and a viability, T/C [24] of 83.9%. The viability, T/C [25] was 55.9%, the viability, T/C [26] was 78.9% and the viability, T/C [27] was 42.4%. The viability, T/C [28] was 21.4%, the viability, T/C [29] was 13.4% and the viability, T/C [30] was 59.1%. For the same compound, the viability, T/C [31] was 56.9%, the viability, T/C [32] was 59.8% and the viability, T/C [33] was 57.7%. It also gave a viability, T/C [34] of 20.2% and a viability, T/C [35] of 11.7%.

`Nc1ncn(C2CC(O)C(CO)S2)c(=O)n1` (stereo unspecified) was tested, and the viability, T/C (compound 0.000949 µM) was 97.2% and 92.9% and 82.7%, the viability, T/C (compound 0.003 µM) was 99.2% and 94.3% and 81.9% and the viability, T/C (compound 0.00949 µM) was 96.8% and 87.4% and 85.6%. For the same compound, the viability, T/C (compound 0.03 µM) was 73.7% and 78.3% and 64.3%, the viability, T/C (compound 0.0949 µM) was 51.7% and 54.9% and 55.8% and the viability, T/C (compound 0.3 µM) was 29% and 31.2% and 26.1%. The IC50 (curve of compound) was 94.1 nM and 121 nM and 111 nM.

`CC(C)CC(NC(=O)C(Cc1ccccc1)NC(=O)c1cnccn1)B(O)O` (stereo unspecified) was tested, and the viability, T/C (compound 0.000949 µM) was 52.6% and 44.3% and 19.1%, the viability, T/C (compound 0.003 µM) was 10.6% and 12.6% and 7.27% and the viability, T/C (compound 0.00949 µM) was 1.45% and 2.68% and 2.76%. The viability, T/C (compound 0.03 µM) was 0.95% and 1.46% and 2.12%, the viability, T/C (compound 0.0949 µM) was 0.72% and 2.31% and 2.54% and the viability, T/C (compound 0.3 µM) was 0.73% and 2.25% and 1.49%. For the same compound, the IC50 (curve of compound) was 1.02 nM and < 0.949 nM.

`CC(C)c1c(-c2ccccc2)nc2c(C#N)c[nH]n2c1=O` + CC(CO)NC(=O)c1cc(-c2ccc(Cl)cc2)nn(-c2cnn(C)c2)c1=O showed an IC50 [1] of over 10000 nM, an IC50 [2] of over 10000 nM and an IC50 [3] of over 10000 nM. For the same compound, the IC50 [4] was over 10000 nM, the IC50 [5] was 170 nM and the viability, T/C [6] was 91.8%. It also gave a viability, T/C [7] of 66.8%, a viability, T/C [8] of 98.2% and a viability, T/C [9] of 68.5%. The viability, T/C [10] was 77%, the viability, T/C [11] was 78% and the viability, T/C [12] was 66.9%. For the same compound, the viability, T/C [13] was 93.3%, the viability, T/C [14] was 67.7% and the viability, T/C [15] was 78.7%. The viability, T/C [16] was 85.7%, the viability, T/C [17] was 60.8% and the viability, T/C [18] was 91.3%. It also gave a viability, T/C [19] of 70.7%, a viability, T/C [20] of 88.3% and a viability, T/C [21] of 67.1%. For the same compound, the viability, T/C [22] was 58.2%, the viability, T/C [23] was 70.3% and the viability, T/C [24] was 70.3%. For the same compound, the viability, T/C [25] was 86.2%, the viability, T/C [26] was 71.8% and the viability, T/C [27] was 77.2%. The viability, T/C [28] was 56.4%, the viability, T/C [29] was 60.4% and the viability, T/C [30] was 54.3%. It also gave a viability, T/C [31] of 55.3%, a viability, T/C [32] of 46.5% and a viability, T/C [33] of 45%. The viability, T/C [34] was 43.6% and the viability, T/C [35] was 45.5%.

With `COc1cc(Nc2ncc3c(n2)-c2ccc(Cl)cc2C(c2c(F)cccc2OC)=NC3)ccc1C(=O)O` the viability, T/C (compound 0.0316 µM) was 71.2% and 55.7% and 53.1%, the viability, T/C (compound 0.1 µM) was 60.4% and 48.7% and 48.4% and the viability, T/C (compound 0.316 µM) was 35.9% and 24.7% and 26.5%. For the same compound, the viability, T/C (compound 1 µM) was 47% and 31.1% and 35.9%, the viability, T/C (compound 3.16 µM) was 43% and 33.3% and 42.7% and the viability, T/C (compound 10 µM) was 37.2% and 35.5% and 37.6%. The IC50 (curve of compound) was 184 nM and 52.6 nM and < 31.6 nM.
